Test results published in PMC5006990 (PLoS ONE, 2016).
≈ marks a conversion by molar mass, not a printed value. Where two headings read alike, the source gives them in different places.

Assays:
MtbDHFR [1] = target: T1, MtbDHFR (Mycobacterium tuberculosis, UniProt P9WNX1); settings: in words; cited from earlier work
Mtb = settings: cited from earlier work; for inhibition of the growth of Mtb: in words
[2] = test system: M. tuberculosis ATCC 35801 (strain Erdman); experiment: Microtiter broth dilution MIC, Mtb Erdman; settings: for MIC (μg/mL) Mtb: Erdmann strain (ATCC 35801), screening rounds 1 and 2; for MIC (μg/mL) Mtb Erdman: Table 1 panel
Mtb 365 = experiment: microbe, parasite or virus in culture; type: cell-based, Mycobacterium tuberculosis; settings: Mycobacterium tuberculosis, 365, read-out: MIC (μg/mL) Mtb 365
Mtb 56 = experiment: microbe, parasite or virus in culture; type: cell-based, Mycobacterium tuberculosis; settings: Mycobacterium tuberculosis, 56, read-out: MIC (μg/mL) Mtb 56
Mtb 5 = experiment: microbe, parasite or virus in culture; type: cell-based, Mycobacterium tuberculosis; settings: Mycobacterium tuberculosis, 5, read-out: MIC (μg/mL) Mtb 5
[3] = test system: M. smegmatis (Overexpressing DHFR Strain 2); experiment: MIC against M. smegmatis overexpressing DHFR, strain 2; settings: Mycolicibacterium smegmatis, read-out: MIC (µg/mL) M. smegmatis (Overexpressing DHFR Strain 2)
[4] = test system: M. smegmatis (parent strain); experiment: MIC against M. smegmatis parent strain; settings: Mycolicibacterium smegmatis, read-out: MIC (µg/mL) M. smegmatis (parent strain)
Mtb C-31 = experiment: microbe, parasite or virus in culture; type: cell-based; settings: Mycobacterium tuberculosis, C31, read-out: MIC (μg/mL) Mtb C-31
Mtb 276 = experiment: microbe, parasite or virus in culture; type: cell-based, Mycobacterium tuberculosis; settings: Mycobacterium tuberculosis, 276, read-out: MIC (μg/mL) Mtb 276
[5] = test system: M. smegmatis (Overexpressing DHFR Strain 1); experiment: MIC against M. smegmatis overexpressing DHFR, strain 1; settings: Mycolicibacterium smegmatis, read-out: MIC (µg/mL) M. smegmatis (Overexpressing DHFR Strain 1)
Mtb 352 = experiment: microbe, parasite or virus in culture; type: cell-based, Mycobacterium tuberculosis; settings: Mycobacterium tuberculosis, 352, read-out: MIC (μg/mL) Mtb 352
MtbDHFR [6] = target: T1, MtbDHFR; experiment: biochemical; type: biochemical
HuDHFR = target: T2, HuDHFR (Homo sapiens, UniProt P00374); experiment: Human DHFR enzyme inhibition (NADPH oxidation at 340 nm); type: biochemical; settings: triplicate, mean ± SD
T2 construct: made in house
T2 sequence (P00374 1-187): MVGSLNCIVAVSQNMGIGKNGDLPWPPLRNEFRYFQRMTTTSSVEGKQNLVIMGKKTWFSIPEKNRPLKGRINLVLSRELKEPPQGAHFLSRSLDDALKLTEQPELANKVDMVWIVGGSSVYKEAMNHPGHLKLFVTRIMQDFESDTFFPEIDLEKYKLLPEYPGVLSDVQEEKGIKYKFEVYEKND

T1 sequence (P9WNX1 whole entry): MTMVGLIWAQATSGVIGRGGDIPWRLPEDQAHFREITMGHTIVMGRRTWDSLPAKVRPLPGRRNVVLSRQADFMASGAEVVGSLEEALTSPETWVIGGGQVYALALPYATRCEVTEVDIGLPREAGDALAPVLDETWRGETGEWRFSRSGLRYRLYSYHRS

SMILES	MIC (μg/mL) Mtb [2] [µg/mL]	MIC (μg/mL) Mtb Erdman [2] [µg/mL]	MIC (Mtb 365) [µg/mL]	MIC (Mtb 56) [µg/mL]	MIC (Mtb 5) [µg/mL]	MIC (Mtb C-31) [µg/mL]	MIC (Mtb 352) [µg/mL]	also measured
CCc1nc(N)nc(N)c1-c1ccc(Cl)cc1 [pyrimethamine]	–	–	–	–	–	–	–	inhibition of the MtbDHFR enzyme (MtbDHFR [1]): potent inhibitors; inhibition of the growth of Mtb (Mtb): fail to inhibit the growth
CCc1nc(N)nc(N)c1C#C[C@H](C)c1cc(-c2ccc(C(=O)O)cc2)ccc1OC [UCP1163]	16 (≈ 38.4 µM)	–	–	–	–	–	–	–
CCc1nc(N)nc(N)c1C#CC(C)c1cc(-c2cncn2C)ccc1OC (stereo not shown) [UCP1084]	2 (≈ 5.31 µM)	4 (≈ 10.6 µM)	4 (≈ 10.6 µM)	4 (≈ 10.6 µM)	4 (≈ 10.6 µM)	8 (≈ 21.3 µM)	4 (≈ 10.6 µM)	MIC [3]: 16 µg/mL (≈ 42.5 µM); MIC [4]: 1 µg/mL (≈ 2.66 µM); MIC (Mtb 276): 4 µg/mL (≈ 10.6 µM); MIC [5]: 64 µg/mL (≈ 170 µM)
CCc1nc(N)nc(N)c1C#C[C@@H](C)c1cc(-c2ccc(C(=O)O)cc2)ccc1OC [UCP1164]	0.5 (≈ 1.2 µM)	–	–	–	–	–	–	–
CCc1nc(N)nc(N)c1C#CCc1cc(-c2ccc(C(=O)O)cc2)ccc1OC [UCP1106]	4 (≈ 9.94 µM)	16 (≈ 39.8 µM)	4 (≈ 9.94 µM)	16 (≈ 39.8 µM)	8 (≈ 19.9 µM)	> 32	16 (≈ 39.8 µM)	MIC [3]: > 32 µg/mL; MIC [4]: 8 µg/mL (≈ 19.9 µM); MIC (Mtb 276): 16 µg/mL (≈ 39.8 µM); MIC [5]: > 32 µg/mL
COc1cc(Cc2cnc(N)nc2N)cc(OC)c1OC [TMP, reference compound]	256 (≈ 882 µM)	–	–	–	–	–	–	–
CCc1nc(N)nc(N)c1C#CCc1cc(OC)cc(-c2ccc(C(=O)O)cc2)c1 [UCP1175]	0.125 (≈ 0.311 µM)	0.5 (≈ 1.24 µM)	0.125 (≈ 0.311 µM)	0.5 (≈ 1.24 µM)	2 (≈ 4.97 µM)	8 (≈ 19.9 µM)	0.5 (≈ 1.24 µM)	IC50 (MtbDHFR [6]; IC50 (nM) MtbDHFR): 460 ± 50 nM
NNC(=O)c1ccncc1 [INH, Isoniazid, reference compound]	0.03 (≈ 0.219 µM)	0.125 (≈ 0.911 µM)	2 (≈ 14.6 µM)	1 (≈ 7.29 µM)	4 (≈ 29.2 µM)	4 (≈ 29.2 µM)	1 (≈ 7.29 µM)	–
CCc1nc(N)nc(N)c1C#CC(C)c1cc2c(c(-c3cncn3C)c1)OCO2 (stereo not shown) [UCP1102]	2 (≈ 5.12 µM)	4 (≈ 10.2 µM)	8 (≈ 20.5 µM)	8 (≈ 20.5 µM)	8 (≈ 20.5 µM)	8 (≈ 20.5 µM)	4 (≈ 10.2 µM)	MIC [3]: 32 µg/mL (≈ 82 µM); MIC [4]: 1 µg/mL (≈ 2.56 µM); MIC (Mtb 276): 4 µg/mL (≈ 10.2 µM); MIC [5]: 64 µg/mL (≈ 164 µM)
COc1cc(NCc2ccc3nc(N)nc(N)c3c2C)cc(OC)c1OC [Trimetrexate]	4 (≈ 10.8 µM)	–	–	–	–	–	–	inhibition of the MtbDHFR enzyme (MtbDHFR [1]): potent inhibitors; inhibition of the growth of Mtb (Mtb): fail to inhibit the growth
CCc1nc(N)nc(N)c1C#CCc1cc(OC)c(OC)c(-c2ccncc2)c1 [UCP1039]	32 (≈ 82.2 µM)	–	–	–	–	–	–	IC50 (HuDHFR): 495 ± 58 nM; IC50 (MtbDHFR [6]; triplicate, mean ± SD, read-out: IC50 (nM) MtbDHFR): 297 ± 38 nM
CCc1nc(N)nc(N)c1C#C[C@H](C)c1cc2c(c(-c3ccncc3)c1)OCO2 [UCP1098]	4 (≈ 10.3 µM)	8 (≈ 20.6 µM)	4 (≈ 10.3 µM)	8 (≈ 20.6 µM)	8 (≈ 20.6 µM)	16 (≈ 41.3 µM)	8 (≈ 20.6 µM)	MIC [3]: 32 µg/mL (≈ 82.6 µM); MIC [4]: 0.5 µg/mL (≈ 1.29 µM); MIC (Mtb 276): 8 µg/mL (≈ 20.6 µM); IC50 (MtbDHFR [6]): 206 ± 6 nM; MIC [5]: 64 µg/mL (≈ 165 µM)
CN(Cc1cnc2nc(N)nc(N)c2n1)c1ccc(C(=O)N[C@@H](CCC(=O)O)C(=O)O)cc1 [Methotrexate]	–	–	–	–	–	–	–	inhibition of the growth of Mtb (Mtb): fail to inhibit the growth
CCc1nc(N)nc(N)c1C#C[C@H](C)c1cc(-c2ccncc2)ccc1OC [UCP1063]	2 (≈ 5.36 µM)	–	–	–	–	–	–	–
Nc1nc(N)c2c(Cl)c(CNc3ccc(C(=O)O)cc3)ccc2n1 [DQn-1]	–	–	–	–	–	–	–	MIC (Mtb; Glaxo antifolate collection screen): 0.03 µM; MIC (Mtb; Glaxo antifolate library screen): 0.03 µg/mL
CCc1nc(N)nc(N)c1C#C[C@H](C)c1cc(OC)cc(-c2ccc(C(=O)O)cc2)c1 [UCP1172]	<0.03	<0.03	< 0.03	0.06 (≈ 0.144 µM)	0.25 (≈ 0.6 µM)	8 (≈ 19.2 µM)	0.06 (≈ 0.144 µM)	–
